Data from patent US6455593B1, “Method of dynamic retardation of cell cycle kinetics to potentiate cell damage” (priority 1995, dated 2002).

Key:
[1] = test system: human promonocytic lymphoma cells (U937); experiment: Microculture indicator system (MIS), MTT growth inhibition assay with bivariate serial dilutions; type: cell-based
Description: Microcultures of human promonocytic lymphoma cells (U937) (“the U937 cells”) originally obtained from the American Type Culture Collection (CRL 1593) and later grown by Dr. K. Zoon at the FDA in Bethesda, Md. were set up in a multiwell plate with serial two-fold dilutions of dThd in tissue culture growth medium (RPMI 1640 plus 10% Nurserum and antibiotics). The volume of medium per well was 100 μl and the cell number per well was about 1×10^5. The plate was incubated at 37° C. for 24 hr.
A dye, 3-[4,5-dimethylthiazol-2-yl]-2,5-diphenyl-tetrazolium bromide (MTT), was used as a chromogenic indicator of the metabolically active cell mass. Viable cells metabolize the dye and accumulate a reduced formazan product (blue color) which is solubilized for colorimetry. Mossman T, J. Immunol. Methods 5:55-63 (1983); Li L and Lau B H S, In Vitro Cell Dev. Biol. 29A:531-536 (1993). The MTT assay has been established as useful for measuring either growth inhibition or population killing. Plowman, supra. The MTT method is ideal for cells tested in suspension growth, and can also be used for some cells growing in monolayers. […] Alley, supra; Hofs, supra; Wilson J K et al., Br. J. Cancer 62:189-94 (1990); Plowman, supra.
Thirty μl of 0.5% MTT in phosphate buffered saline was added to each microculture well at the appropriate time. After incubation at 37° C. for 3 hr, 120 μl of an aqueous solution of 10 % SDS with 0.01 N HCl was added to release and dissolve formazan product. This was accomplished by overnight incubation of the plate at 37° C. After careful mixing of the microwell contents by placing the plates on an orbital shaker for 5 minutes the absorbencies were quantitated by spectrophotometry at 570 nm with a Ceres UV 900 HDI microwell plate reader (from Biotek Instruments Inc, Winooski, Vt. 05404-0998). Absorbance data was normalized to a blank well containing all reagents without cells and was collected semi-automatically.
Flat-bottom 96-well plates of tissue culture quality (Corning or Costar) were set up with two-fold serial dilutions of each agent to be tested, e.g., the RA and TCI, using a multichannel pipettor with adjustable volume, e.g., Costar or Rainin, to perform serial mixing. This set-up is diagrammed in FIG. 12. […] In each plate, a total of 59 wells then contained bivariate agent combinations, the bivariate serial dilutions.
Agents were serially diluted by serial mixing in two separate plates or series of wells, and then were combined prior to addition of a fixed volume and density of the U937 cells in a suspension calculated to deliver about 1×10^5 cells per well.
Cells were added after serial dilutions of the dThd had been dispensed. Cells were dispensed at about 10×10^4 cells per microwell to provide optimal sensitivity of detection of cell damage in subsequent calorimetric assays. […] The final volume of medium was 100 μl/well. The plates were further incubated at 37° C. for a total duration of 18-24 h. The dye MTT was used as a chromogenic indicator of the residual and metabolically active cell mass. (Described in Example 1).
In this MTT assay, normalized absorbance data was collected semi-automatically from each microculture well with a Ceres UV 900 HD1 plate reader, from Biotek Instruments Inc., Winooski, V T 05404-0998, stored in an EIA file under the Ceres 900 program, transferred in comma delimited format to a floppy diskette, and imported into a spread sheet program (Borland Quattro Pro) for data manipulations.

U937 cells [2] = experiment: Flow cytometric cell cycle analysis (propidium iodide); type: cell-based, human
Description: Flow cytometric analyses were performed with a Coulter Epics System (purchased from Coulter Corp, Hialeah, Fla.). Cells were disrupted in buffer with 0.1% Triton-X 100 (or 0.6 % NP-40), so that the nuclei could be stained with 0.05% propidium iodide (PI). See Shapiro N M, Practical Flow Cytometry, Man R Liss, NY (1988); Nicoletti I et al., J Immunol Methods 139:271-9 (1991). Analyses of 10,000 nuclei were performed with graduated concentrations of dThd at serial time points. Histograms of PI fluorescent emissions at 675±10 nm were used to discriminate cell cycle fractions of the target population. The proportion of cells in each phase of the cell cycle is represented by stack bars above the X-axis as a fraction of those cells with intact DNA structure. The fraction of cells with depleted DNA in each sample is represented below the X-axis as a percentage of the total cell number. Cells with depleted DNA are presumed apoptotic. Crompton S T et. al. Biophys. Biochem. Res. Comm. 183:532-537 (1992). Each stack bar in FIG. 5 represents the cell cycle distribution of a population sample of >10,000 cells, analyzed for each indicated dThd concentration at indicated treatment times.
Flow cytometric analyses were performed as in Example 2. The results are shown in plot A of FIG. 5 from Example 2.
The U937 cells were exposed to a range of concentrations below the IC40 and sampled for flow cytometry at intervals of 8, 16, and 24 hours. Flow cytometric analysis was performed as described in Example 2.

p. falciparum W2 = experiment: Parasite growth by 3H-hypoxanthine uptake in infected erythrocytes; type: cell-based; details: Plasmodium falciparum, W2, Erythrocyte; 24 hr after RBC infection, 3H-hypoxanthine uptake; read-out: inhibitory concentrations (IC50), strain W2
p. falciparum D6 = experiment: as above; type: cell-based; details: Plasmodium falciparum, D6, Erythrocyte; 24 hr after RBC infection, 3H-hypoxanthine uptake; read-out: inhibitory concentrations (IC50), strain D6
[3] = test system: Burkitt's lymphoma cell line Raji; experiment: MIS MTT growth inhibition assay; type: cell-based, human; details: total 24 Hours
[4] = after oral ingestion; cited from earlier work
U937 cells [5] = experiment: DNA gel electrophoresis for DNA fragmentation (apoptosis); type: cell-based, human
Description: Samples of the U937 cells were exposed to a series of concentrations of dThd for 24 hr. Their DNA was isolated by lysis of cell samples in TE buffer containing TRIS 10 mM, EDTA 10 mM, SDS 0.5% and proteinase K 200 μg/ml at […] for 2 h. The proteins were precipitated in a IM solution of NaCl and centrifuged at 2,500×g for 30 min at […] DNAse free RNase (25 μg/ml) was added to the supernatant and incubated for 30 min at 37° C. Spectrophotometric quantitation of the DNA in the supernatant was quantitated by absorbance spectrophotometry at 260 nm. Volumes adjusted to contain equal amounts of DNA were mixed with a loading buffer of 40% (w/v) sucrose, 0.1M EDTA pH 8.0, 0.5% (w/v) sodium lauryl sulphate and 0.05% (w/v) bromophenol blue. […] Separated bands of DNA were stained with ethidium bromide and photographed in UV light (Fotodyne Inc.). […] The lowest molecular weight (about 180 bp) was determined with a standard 123 bp ladder from Sigma Chemical Co. (Cat. #D5042). The result shown is a classical “DNA ladder,” characteristic of the fragmentation of DNA macromolecules in apoptosis. See Tomei, supra; Obeid, supra; Gold, supra.

[6] = Homo sapiens, U-937, 4 h, U937, HU […] 4 H, K252a 0, read-out: MTT % inhibition, HU only

Molecule: O=c1[nH]c(=O)n([C@H]2C[C@H](O)[C@@H](CO)O2)cc1Br [BrdU, bromodeoxyuridine]
- RA concentration for STSP potentiation relative to concentration causing cell cycle arrest ([1]; U937): at least one log lower
- Growth inhibition (MTT), BrdU 0.01 mM (ninth dilution) ([1]; U937, BrdU 0.01 mM (c19) for 4 H, STSP for 18 H, total 22 H, STSP nM rows r7-r12: 200,100,60,26,12.6,6.25, r14 BrdU alone): 4%
- Growth inhibition (MTT), BrdU 0.01 mM (tenth, last dilution) ([1]; U937, BrdU 0.01 mM (c21, last dilution) for 4 H, STSP for 18 H, total 22 H, STSP nM rows r7-r12: 200,100,60,26,12.6,6.25, r14 BrdU alone): 4%
- Combined results ratio (CRR), BrdU 0.02 mM ([1]; U937, BrdU 0.02 mM for 4 H, STSP for 18 H, total 22 H, STSP nM rows r7-r12: 200,100,60,26,12.6,6.25, r13 BrdU alone): 1.0
- Growth inhibition (MTT), BrdU 0.02 mM ([1]; U937, BrdU 0.02 mM for 4 H, STSP for 18 H, total 22 H, STSP nM rows r7-r12: 200,100,60,26,12.6,6.25, r14 BrdU alone): 5%
- Combined results ratio (CRR), BrdU 0.06 mM ([1]; U937, BrdU 0.06 mM for 4 H, STSP for 18 H, total 22 H, STSP nM rows r7-r12: 200,100,60,26,12.6,6.25, r13 BrdU alone): 1.0
- Growth inhibition (MTT), BrdU 0.06 mM ([1]; U937, BrdU 0.06 mM for 4 H, STSP for 18 H, total 22 H, STSP nM rows r7-r12: 200,100,60,26,12.6,6.25, r14 BrdU alone): 10%
- Combined results ratio (CRR), BrdU 0.09 mM ([1]; U937, BrdU 0.09 mM for 4 H, STSP for 18 H, total 22 H, STSP nM rows r7-r12: 200,100,60,26,12.6,6.25, r13 BrdU alone): 1.0
- Growth inhibition (MTT), BrdU 0.09 mM ([1]; U937, BrdU 0.09 mM for 4 H, STSP for 18 H, total 22 H, STSP nM rows r7-r12: 200,100,60,26,12.6,6.25, r14 BrdU alone): 21%
- Combined results ratio (CRR), BrdU 3.00 mM ([1]; U937, BrdU 3.00 mM for 4 H, STSP for 18 H, total 22 H, STSP nM rows r7-r12: 200,100,60,26,12.6,6.25, r13 BrdU alone): 1.0
- Growth inhibition (MTT), BrdU 3.00 mM ([1]; U937, BrdU 3.00 mM for 4 H, STSP for 18 H, total 22 H, STSP nM rows r7-r12: 200,100,60,26,12.6,6.25, r14 BrdU alone): 61%
- Combined results ratio (CRR), BrdU […] ([1]; U937, BrdU […] for 4 H, STSP for 18 H, total 22 H, STSP nM rows r7-r12: 200,100,60,26,12.6,6.25, r13 BrdU alone): 1.0
- Effect on S phase (U937 cells [2]; bivariate flow cytometry, PI and fluorescein-labelled antibody to BrdU): produced a slowing of S phase similar to that caused by dThd

Molecule: NC(=O)NO [HU, hydroxyurea]
- inhibition at 10 µM ([1]; Homo sapiens, U-937, 4 h, U937, HU 0.01 mM 4 H, K252a 0, read-out: MTT % inhibition, HU only): -1%
- inhibition at 20 µM ([1]; Homo sapiens, U-937, 4 h, U937, HU 0.02 mM 4 H, K252a 0, read-out: MTT % inhibition, HU only): -1%
- inhibition at 30 µM ([1]; Homo sapiens, U-937, 4 h, U937, HU 0.03 mM 4 H, K252a 0, read-out: MTT % inhibition, HU only): 1%
- inhibition at 60 µM ([1]; Homo sapiens, U-937, 4 h, U937, HU 0.06 mM 4 H, K252a 0, read-out: MTT % inhibition, HU only): 9%
- inhibition at 500 µM ([1]; Homo sapiens, U-937, 4 h, U937, HU 0.50 mM 4 H, K252a 0, read-out: MTT % inhibition, HU only): 48%
- inhibition at 1000 µM ([1]; Homo sapiens, U-937, 4 h, U937, HU 1.00 mM 4 H, K252a 0, read-out: MTT % inhibition, HU only): 52%
- inhibition at 2000 µM ([1]; Homo sapiens, U-937, 4 h, U937, HU 2.00 mM 4 H, K252a 0, read-out: MTT % inhibition, HU only): 59%
- inhibition at 130 µM [1, 6]: 20%
- inhibition at 250 µM [1, 6]: 36%
- Enhancement of DEET-induced apoptosis as prospective RA ([1]; MTT tests, about 0.05 to 3 mM, preliminary results): no significant enhancement of the DEET-induced apoptosis
- MTT % inhibition, HU only ([1]; U937, HU 0.00 mM (so in the source) 4 H, K252a 0): −2%
- Cells that became DNA depleted (U937 cells [2]; 0.125-1 mM HU, up to 16 hr, U937): no more than 20%
- Cells with depleted DNA (U937 cells [2]; HU>1 mM (2 mM at 24 hr), U937): a major increase in cells with depleted DNA became evident
- IC50 (p. falciparum W2): 219 µM
- IC50 (p. falciparum D6): 175 µM
- Growth Inhibition ([3]; HU only 0.00 mM): −3%
- Growth Inhibition ([3]; HU only 0.01 mM): −0%
- Growth Inhibition ([3]; HU only 0.02 mM): −7%
- Growth Inhibition ([3]; HU only 0.03 mM): −7%
- Growth Inhibition ([3]; HU only 0.05 mM): −7%
- Growth Inhibition ([3]; HU only 0.50 mM): 0%
- Growth Inhibition ([3]; HU only 1.00 mM): 0%
- Growth Inhibition ([3]; HU only 2.00 mM): 17%
- Time of blood level peak [4]: 2 to 4 h

Molecule: CCCCCCCCCCCCCC(=O)O[C@@H]1[C@@H](C)[C@@]2(O)[C@@H](C=C(CO)C[C@]3(O)C(=O)C(C)=C[C@@H]23)[C@H]2C(C)(C)[C@]12OC(C)=O [TPA, 12-0-tetradecanoyl-phorbol-13-acetate]
- Effect on dThd potentiation of STSP DNA fragmentation (U937 cells [5]; 10 nM TPA 48 hours differentiation, then dThd […], STSP 25 nM 7 hours): significantly reduced dThd potentiation of DNA fragmentation during STSP treatment

Molecule: Nc1ccn([C@H]2C[C@H](O)[C@@H](CO)O2)c(=O)n1 [dCyt, deoxycytidine]
- Effect on DNA fragmentation by dThd and STSP (U937 cells [5]; dCyt added to U937 cultures treated with dThd and STSP): decreased DNA fragmentation

Molecule: bleomycin
- Combined results ratio, bleomycin only ([1]; MTT #523, total 20 Hours, bleomycin 16 Hours, no STSP, bleomycin mU by row: r9 160, r10 80, r11 40, r12 20, r13 10, r14 5): 1.0
